In ChEMBL document CHEMBL1201862, “PubChem BioAssay data set” (2004):
Activity calls are given as the source filed them.

Columns and labels:
[1] = cytotoxicity in HEK-293T cells, dose response, cytotoxicity control for BCR NF-kB inhibitor project, luminescence, B-cell screen hits (AID 489021); assay type: functional, cell-based;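 also: HEK-293T cells carrying an NF-kB luciferase reporter; cells exposed to compound for about 14 hours before viability readout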
Cytochrome P450 3A4 = Cytochrome P450 3A4 (Homo sapiens, UniProt P08684); details: Potency;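 also: confirmatory qHTS run detecting inhibitors and substrates of CYP3A4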
Cytochrome P450 3A4, sequence (P08684 whole entry): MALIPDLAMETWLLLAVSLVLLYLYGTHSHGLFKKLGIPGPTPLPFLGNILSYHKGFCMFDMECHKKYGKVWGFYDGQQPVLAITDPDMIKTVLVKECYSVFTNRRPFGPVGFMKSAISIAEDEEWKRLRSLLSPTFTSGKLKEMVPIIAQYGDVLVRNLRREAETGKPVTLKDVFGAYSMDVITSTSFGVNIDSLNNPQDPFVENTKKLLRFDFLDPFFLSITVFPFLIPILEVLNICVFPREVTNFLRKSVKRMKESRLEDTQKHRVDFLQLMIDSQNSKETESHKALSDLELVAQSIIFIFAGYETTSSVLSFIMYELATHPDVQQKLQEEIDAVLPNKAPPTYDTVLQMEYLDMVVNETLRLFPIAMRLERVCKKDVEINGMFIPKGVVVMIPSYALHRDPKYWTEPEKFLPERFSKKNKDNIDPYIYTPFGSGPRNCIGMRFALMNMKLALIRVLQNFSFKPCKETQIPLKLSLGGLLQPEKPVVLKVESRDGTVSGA

Coagulation factor XII = target: T1, Coagulation factor XII (Homo sapiens, UniProt P00748); assay type: functional;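 also: activated factor XIIa alpha cleaving a fluorogenic AMC peptide substrate; inhibitor potency from loss of enzyme activity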
T1 sequence (P00748 whole entry): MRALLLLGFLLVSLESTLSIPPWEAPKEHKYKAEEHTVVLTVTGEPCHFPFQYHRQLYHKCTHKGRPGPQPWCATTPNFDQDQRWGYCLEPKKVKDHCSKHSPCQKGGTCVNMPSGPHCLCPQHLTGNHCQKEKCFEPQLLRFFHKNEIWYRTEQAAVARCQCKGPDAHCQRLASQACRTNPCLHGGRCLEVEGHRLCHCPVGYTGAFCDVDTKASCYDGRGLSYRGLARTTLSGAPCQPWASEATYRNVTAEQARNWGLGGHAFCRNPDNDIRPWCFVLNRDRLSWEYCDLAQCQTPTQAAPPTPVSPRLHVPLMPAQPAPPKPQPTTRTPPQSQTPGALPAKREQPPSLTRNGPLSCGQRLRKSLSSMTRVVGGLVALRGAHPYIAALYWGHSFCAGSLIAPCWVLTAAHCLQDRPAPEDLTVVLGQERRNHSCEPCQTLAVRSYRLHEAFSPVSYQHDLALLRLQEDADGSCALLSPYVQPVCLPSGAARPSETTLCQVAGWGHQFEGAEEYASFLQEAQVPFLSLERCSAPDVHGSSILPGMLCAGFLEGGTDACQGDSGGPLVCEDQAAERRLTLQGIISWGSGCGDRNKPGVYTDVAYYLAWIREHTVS

[2] = target: T2, Heat shock factor protein 1 (Mus musculus, UniProt P38532); assay: inhibition of MG132-induced HSE-luciferase signal, confirmation, cell-based, NIH3T3, luminescence, dose retest (AID 2382); assay type: functional;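 also: NIH3T3 fibroblasts with HSF1-driven luciferase reporter stressed by proteasome inhibitor MG132; luminescence from HSF1-driven luciferase expression after 8 hours of MG132 stress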
T2 sequence (P38532 whole entry): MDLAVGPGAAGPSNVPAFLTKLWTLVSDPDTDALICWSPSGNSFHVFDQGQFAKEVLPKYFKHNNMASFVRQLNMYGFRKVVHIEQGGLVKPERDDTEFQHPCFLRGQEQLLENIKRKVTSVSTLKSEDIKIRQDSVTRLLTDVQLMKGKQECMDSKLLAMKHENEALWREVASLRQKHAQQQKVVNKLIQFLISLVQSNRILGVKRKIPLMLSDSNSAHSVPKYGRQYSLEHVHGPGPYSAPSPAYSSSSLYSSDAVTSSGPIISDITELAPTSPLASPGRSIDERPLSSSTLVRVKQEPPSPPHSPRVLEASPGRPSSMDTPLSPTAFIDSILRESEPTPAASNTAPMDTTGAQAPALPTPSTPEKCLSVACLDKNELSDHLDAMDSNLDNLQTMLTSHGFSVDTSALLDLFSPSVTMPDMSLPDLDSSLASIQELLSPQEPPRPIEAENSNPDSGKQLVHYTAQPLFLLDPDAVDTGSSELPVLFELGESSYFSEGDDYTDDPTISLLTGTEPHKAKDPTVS

[3] = target: T3, RNA-binding protein pos-1 (Caenorhabditis elegans, UniProt G5EF15); assay: inhibitors of POS-1/mex-3 RNA binding, dose response, biochemical, fluorescence polarization (AID 1964);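 also: purified POS-1 fused to maltose binding protein made in E. coli; potency of compounds blocking POS-1 binding to fluorescent RNA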
T3 sequence (G5EF15 whole entry): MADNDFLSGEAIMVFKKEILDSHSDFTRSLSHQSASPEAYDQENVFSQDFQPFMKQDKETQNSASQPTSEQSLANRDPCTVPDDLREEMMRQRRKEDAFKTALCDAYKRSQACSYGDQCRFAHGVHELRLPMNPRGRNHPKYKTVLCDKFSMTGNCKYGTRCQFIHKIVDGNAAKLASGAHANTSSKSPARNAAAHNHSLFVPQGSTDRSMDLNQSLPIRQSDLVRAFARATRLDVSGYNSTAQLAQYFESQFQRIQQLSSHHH

Estrogen receptor beta [4] = target: T4, Estrogen receptor beta (Homo sapiens, UniProt Q92731);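 also: recombinant ER-beta bound to coactivator SRC1 peptide in presence of estradiol agonist; inhibitors block coactivator peptide binding and lower the FRET signal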
T4 sequence (Q92731 whole entry): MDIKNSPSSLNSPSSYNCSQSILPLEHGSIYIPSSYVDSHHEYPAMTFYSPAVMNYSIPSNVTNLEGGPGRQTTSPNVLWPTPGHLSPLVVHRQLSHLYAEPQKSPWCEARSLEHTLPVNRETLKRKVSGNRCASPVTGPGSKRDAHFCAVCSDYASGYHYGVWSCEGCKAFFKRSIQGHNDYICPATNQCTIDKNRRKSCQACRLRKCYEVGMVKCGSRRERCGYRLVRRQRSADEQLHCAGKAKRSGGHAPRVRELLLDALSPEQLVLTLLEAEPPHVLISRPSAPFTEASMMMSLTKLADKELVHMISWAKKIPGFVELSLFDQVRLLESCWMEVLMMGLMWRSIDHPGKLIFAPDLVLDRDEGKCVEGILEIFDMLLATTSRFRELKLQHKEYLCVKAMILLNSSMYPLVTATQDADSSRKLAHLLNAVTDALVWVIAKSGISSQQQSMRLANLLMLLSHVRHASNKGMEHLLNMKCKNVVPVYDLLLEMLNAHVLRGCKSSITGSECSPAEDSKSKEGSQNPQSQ

[5] = target: T5, Zinc finger protein mex-5 (Caenorhabditis elegans, UniProt Q9XUB2); assay: MEX-5/TCR-2 RNA interaction inhibitors, dose response, biochemical, C. elegans, fluorescence polarization (AID 1960)
T5 sequence (Q9XUB2 whole entry): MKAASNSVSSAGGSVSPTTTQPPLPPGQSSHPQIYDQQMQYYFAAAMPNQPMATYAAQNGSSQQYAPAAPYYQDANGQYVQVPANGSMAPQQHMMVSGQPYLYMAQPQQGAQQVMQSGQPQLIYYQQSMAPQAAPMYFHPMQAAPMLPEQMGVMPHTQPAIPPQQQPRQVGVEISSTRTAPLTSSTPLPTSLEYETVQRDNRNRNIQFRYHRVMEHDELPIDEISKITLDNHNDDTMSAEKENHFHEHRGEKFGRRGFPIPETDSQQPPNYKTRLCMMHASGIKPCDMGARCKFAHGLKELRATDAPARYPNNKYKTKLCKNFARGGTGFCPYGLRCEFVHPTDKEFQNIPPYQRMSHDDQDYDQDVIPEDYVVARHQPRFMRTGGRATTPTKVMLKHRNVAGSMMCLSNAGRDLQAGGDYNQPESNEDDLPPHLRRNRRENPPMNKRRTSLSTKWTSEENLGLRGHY

Estrogen receptor beta [6] = target: T4, Estrogen receptor beta; assay: ERβ–SRC-3 coactivator interaction inhibitors, confirmation, orthogonal assay, biochemical, ELISA, streptavidin-HRP readout (AID 1060)
[7] = cytotoxicity in HEK-293T cells, dose response, cytotoxicity control for TCR NF-kB inhibitor project, luminescence, T-cell screen hits (AID 489026); assay type: functional, cell-based;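 also: cells exposed to compound about 14 hours before the viability readout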
[8] = P. falciparum Dd2 growth inhibitors, dose response, SYBR Green, cherry-picked samples (AID 1159567); assay type: functional, cell-based
[9] = HepG2 cell cytotoxicity, dose response, cytotoxicity control, cherry-picked samples (AID 1159577); assay type: functional, cell-based
[10] = IGROV1 ovarian cancer cell cytotoxicity, dose response, PAX8 inhibitor project, plate reader, dry powder samples (AID 743043); assay type: functional, cell-based; details: IGROV-1
[11] = NIH:OVCAR-3 ovarian cancer cell cytotoxicity, dose response, PAX8 inhibitor project, plate reader, dry powder samples (AID 743044); assay type: functional, cell-based
[12] = cytotoxicity in OVCAR8 ovarian cancer cells, dose response, PAX8 project, cell-based, plate reader, dry powder samples (AID 743197); assay type: functional; details: OVCAR-8
Paired box protein Pax-8 = Paired box protein Pax-8 (Homo sapiens, UniProt Q06710); assay: inhibitors of PAX8-driven TPO luciferase reporter, dose response, RMG-I cells, cherry-pick (AID 687027); assay type: functional, cell-based;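 also: luciferase reporter driven by Pax8 target thyroperoxidase promoter measured by SteadyGlo luminescence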
Paired box protein Pax-8, sequence (Q06710 whole entry): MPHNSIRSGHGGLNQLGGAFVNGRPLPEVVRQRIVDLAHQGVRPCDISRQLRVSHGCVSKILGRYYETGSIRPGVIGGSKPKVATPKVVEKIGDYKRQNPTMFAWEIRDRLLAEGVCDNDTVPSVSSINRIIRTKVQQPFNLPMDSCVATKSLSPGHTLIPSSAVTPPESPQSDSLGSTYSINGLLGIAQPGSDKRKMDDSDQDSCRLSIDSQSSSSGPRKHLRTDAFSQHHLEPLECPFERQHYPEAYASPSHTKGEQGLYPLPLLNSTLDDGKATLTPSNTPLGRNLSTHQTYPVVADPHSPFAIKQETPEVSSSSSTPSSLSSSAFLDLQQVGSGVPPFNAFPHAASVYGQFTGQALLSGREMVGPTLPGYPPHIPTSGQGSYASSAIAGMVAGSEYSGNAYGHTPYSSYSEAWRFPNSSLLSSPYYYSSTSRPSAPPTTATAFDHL

Estrogen receptor = target: T6, Estrogen receptor (Homo sapiens, UniProt P03372);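 also: potency for inhibiting coactivator peptide recruitment to the receptor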
T6 sequence (P03372 whole entry): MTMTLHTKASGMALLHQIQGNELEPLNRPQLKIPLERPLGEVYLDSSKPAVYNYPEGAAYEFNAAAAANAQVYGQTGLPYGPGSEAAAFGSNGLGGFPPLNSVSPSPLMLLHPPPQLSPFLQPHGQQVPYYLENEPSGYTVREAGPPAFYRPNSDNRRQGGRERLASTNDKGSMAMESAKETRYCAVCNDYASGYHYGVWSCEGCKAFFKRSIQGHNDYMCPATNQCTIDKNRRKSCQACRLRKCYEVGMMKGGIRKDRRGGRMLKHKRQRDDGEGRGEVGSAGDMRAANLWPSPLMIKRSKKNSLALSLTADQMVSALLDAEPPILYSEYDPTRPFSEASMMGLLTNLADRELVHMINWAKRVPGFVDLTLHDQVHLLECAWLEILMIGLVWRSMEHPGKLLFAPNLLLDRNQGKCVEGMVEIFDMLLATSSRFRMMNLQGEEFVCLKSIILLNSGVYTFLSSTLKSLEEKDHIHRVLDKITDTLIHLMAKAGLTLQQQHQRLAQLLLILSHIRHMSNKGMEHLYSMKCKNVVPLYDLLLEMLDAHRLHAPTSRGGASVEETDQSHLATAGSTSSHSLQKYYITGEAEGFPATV

[13] = THP-1 cell cytotoxicity, dose response, cytotoxicity control for non-replicating M. tuberculosis project (AID 489025); assay type: functional
Nonstructural protein 1 = Nonstructural protein 1 (Influenza A virus, UniProt Q194T2); assay type: functional, Influenza A virus (A/California/07/2009(H1N1))
Nonstructural protein 1, sequence (Q194T2 whole entry): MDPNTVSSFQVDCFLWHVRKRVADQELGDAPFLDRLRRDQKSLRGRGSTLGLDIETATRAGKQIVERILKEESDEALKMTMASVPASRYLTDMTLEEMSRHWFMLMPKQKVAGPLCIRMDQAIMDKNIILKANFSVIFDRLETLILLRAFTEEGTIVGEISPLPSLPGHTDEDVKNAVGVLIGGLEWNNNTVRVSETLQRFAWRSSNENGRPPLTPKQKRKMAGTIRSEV

INS1 = assay: beta cell apoptosis inhibitors, cytokine rescue, dose response, luminescence, retest (AID 449756); assay type: functional, cell-based; details: Rattus norvegicus;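 also: cell death triggered by IL-1 beta plus TNF-alpha plus IFN-gamma mixture; protective hits raise ATP signal compared with cytokine alone wells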
[14] = target: T7, Microphthalmia-associated transcription factor (Homo sapiens, UniProt O75030); assay: TRPM1 promoter luciferase signal decrease, dose response, MITF inhibitor project, cell-based, SK-MEL-5, cherry-picked, set 3 (AID 493073); assay type: functional
T7 sequence (O75030 whole entry): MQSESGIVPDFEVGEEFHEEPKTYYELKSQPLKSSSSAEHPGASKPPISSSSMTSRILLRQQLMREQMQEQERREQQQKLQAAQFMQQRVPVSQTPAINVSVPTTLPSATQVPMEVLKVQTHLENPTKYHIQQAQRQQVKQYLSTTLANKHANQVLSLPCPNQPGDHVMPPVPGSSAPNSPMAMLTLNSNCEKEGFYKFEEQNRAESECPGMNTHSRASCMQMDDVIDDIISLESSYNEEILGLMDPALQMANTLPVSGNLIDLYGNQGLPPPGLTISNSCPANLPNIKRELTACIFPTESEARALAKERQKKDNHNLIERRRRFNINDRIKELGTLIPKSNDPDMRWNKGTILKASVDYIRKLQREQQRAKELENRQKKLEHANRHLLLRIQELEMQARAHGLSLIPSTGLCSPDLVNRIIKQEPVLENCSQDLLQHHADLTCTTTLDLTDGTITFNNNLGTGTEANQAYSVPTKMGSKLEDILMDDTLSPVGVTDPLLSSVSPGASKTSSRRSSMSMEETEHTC

cells = assay type: functional
[15] = Vero E6 cell cytotoxicity, dose response, cytotoxicity control for non-replicating M. tuberculosis project, secondary assay (AID 492998); assay type: functional, VeroE6; details: Vero C1008

Compound: CCc1ccc(/C=C2\SC(=S)N(CCC(=O)Nc3cc(C)on3)C2=O)cc1
- IC50 [1]: > 80 µM (inactive)

Compound: COC(=O)c1cccc(C23CC4(C2)[C@H](CN(Cc2ccc(-c5ccccc5)cc2)[C@@H]4c2ccccc2)C3c2ccccc2)c1 (some centres not stated)
- AC50 (Cytochrome P450 3A4): 15.8 µM (inconclusive)

Compound: CC(=O)N1CC=CC1(CC(C)C)C(=O)NCC1CC1 (configuration not stated)
- AC50 (Cytochrome P450 3A4): 31.6 µM (inconclusive)

Compound: CC1(C)Oc2ccc(C(=O)NC3CCCC3)cc2N(CC(=O)NC2CCCC2)C1=O
- IC50 (Coagulation factor XII): > 50 µM (inactive)

Compound: NC1=C(c2nc3ccccc3[nH]2)C(=O)CN1c1ccc(CC(=O)O)cc1
- EC50 [2]: > 195 µM (not active)
- EC50 [3]: 5.25 µM (inconclusive)
- IC50 (Estrogen receptor beta [4]): 25.9 µM (active)
- EC50 [5]: 1.59 µM (active)
- IC50 (Estrogen receptor beta [6]): < 0.023 µM (not active)

Compound: COc1ccc2c(=O)c(-c3ccccc3)coc2c1
- AC50 (Cytochrome P450 3A4): 39.8 µM (inconclusive)

Compound: O=C(Oc1ccc2ccc(=O)oc2c1)c1cccs1
- IC50 (Coagulation factor XII): 7.8 µM (active)

Compound: Cc1noc(C)c1COc1ccc(CC(=O)NCc2ccccc2)cc1
- IC50 [7]: > 80 µM (inactive)

Compound: COCCNC(=O)CSCc1nc(-c2ccc(SC)cc2)oc1C
- IC50 [1]: > 80 µM (inactive)

Compound: O=C(Nc1cc(F)ccc1F)N1CC(=O)N2[C@H](CO)[C@@H](c3ccc(C#CC4CCCCC4)cc3)[C@@H]2C1
- AC50 [8]: 13.3 µM (active)
- AC50 [9]: 40.3 µM (active)

Compound: CCCOC(=O)c1cc(-c2ccc(/C=C3/C(=O)N(C)C(=O)C(C#N)=C3C)o2)ccc1Cl
- IC50 (Estrogen receptor beta [4]): > 50 µM (not active)
- IC50 (Estrogen receptor beta [6]): 10.3 µM (not active)

Compound: Cc1ccc(S(=O)(=O)Nc2ccc3c(c2)C(=O)N([C@@H](C)CO)C[C@H](C)[C@@H](CN(C)Cc2ccc(C(F)(F)F)cc2)OCCCC[C@@H](C)O3)cc1
- AC50 [10]: 33.1 µM (active)
- AC50 [11]: 11.4 µM (active)
- AC50 [12]: 30.4 µM (active)
- AC50 (Paired box protein Pax-8): 5.99 µM (active)

Compound: COc1ccc(Br)cc1CNC(=O)C1CCCN(c2nc3ccccc3o2)C1 (configuration not stated)
- IC50 (Estrogen receptor): > 50 µM (not active)

Compound: O=C(Nc1nc(-c2ccccn2)cs1)c1ccc([N+](=O)[O-])o1
- CC50 [13]: 9.27 µM (active)
- IC50 (Nonstructural protein 1): 11.7 µM (active)
- AC50 (INS1): 2.11 µM (active)
- AC50 [14]: 10.8 µM (active)
- IC50 (cells): 4.38 µM (active)
- CC50 [15]: 4.61 µM (active)

Compound: Cc1ccc(N)c(N)c1
- AC50 (Cytochrome P450 3A4): 25.1 µM (inconclusive)

Compound: Cc1ccccc1S(=O)(=O)N1CCCCN2[C@H](CO)[C@H](c3ccc(-c4ccccc4)cc3)[C@H]2C1
- AC50 [8]: 1.05 µM (active)
- AC50 [9]: 8.53 µM (active)

Compound: CCN1CCc2nc(NC(=O)Cc3ccc4c(c3)OCCO4)sc2C1
- IC50 (Estrogen receptor): 28.8 µM (active)

Compound: C[C@H]1CCCCO[C@@H](CN(C)Cc2ccc(C(F)(F)F)cc2)[C@@H](C)CN([C@@H](C)CO)C(=O)c2cc(NS(=O)(=O)c3ccccc3)ccc2O1
- AC50 [10]: 47.8 µM (active)
- AC50 [11]: 58.1 µM (active)
- AC50 [12]: > 70 µM (inactive)
- AC50 (Paired box protein Pax-8): 7.08 µM (active)

Compound: CC1CCCN(C(=O)C2CCCN(S(=O)(=O)c3cccc4nsnc34)C2)C1 (configuration not stated)
- IC50 (Coagulation factor XII): > 50 µM (inactive)

Compound: O=C(c1cccc(F)c1)N1CCN(C(=O)c2cc3ncc(Br)cn3n2)CC1
- IC50 (Estrogen receptor): 33.4 µM (not active)
- IC50 (Estrogen receptor beta [4]): 11.5 µM (active)
- IC50 (Estrogen receptor beta [6]): 1.16 µM (not active)

Compound: CCOCC(=O)Nc1ccc(S(=O)(=O)Nc2ncccn2)cc1
- IC50 (Coagulation factor XII): > 50 µM (inactive)

Compound: O=C(CCCN1C(=O)/C(=C/c2ccccc2Cl)SC1=S)Nc1ccccn1
- IC50 [1]: > 80 µM (inactive)
